How the values were obtained:
Assay type in all cases: cell-based
[1] = test system: ALDH+ CD24low/CD44High breast cancer stem cells (from MDA-MB-468 cells); experiment: Apoptosis in sorted breast cancer stem cells versus differentiated cells; settings: 10 μM, two days; ALDH+ CD24low/CD44High vs ALDH- CD24High/CD44low from MDA-MB-468
Procedure: MDA-MB-468 Cells harvested, washed and incubated in aldefluor assay buffer containing an ALDH substrate (BAAA (BODIPY®-aminoacetaldehyde). For negative control, half of the cells of each sample was removed to another FACS tube and incubated under identical condition with DEAB, a specific inhibitor of ALDH enzyme. Then the cells were stained with the following directly conjugated monoclonal antibodies anti-mouse CD44-APC-Cy7 (Biolegend), anti-mouse CD24-Pacific Blue (EXBIO Praha, a.s.). All analyses and cell sorting were performed on a FACSAria™ cell sorter (BD Biosciences). Debris and cell clusters were excluded during side-scatter and forward-scatter analyses.
ALDH^+ CD24^low/CD44^High breast cancer stem cells were sorted and cultured for 24 h. Cells were then treated with 10 μM of the compound KSA-101696 for two days. At the same time, ALDH^− CD24^High/CD44^low breast cancer differentiated cells were used as a negative control to evaluate the selective apoptotic activity of the compound against breast cancer stem cells compared with differentiated phenotype from the same bulk population of MDA-MB-468 cells.

[2] = test system: SP cells of MCF-7 cells; experiment: Side population (SP) cell fraction by flow cytometry; settings: Homo sapiens, MCF7, 24 h, normal culture conditions, read-out: IC50, SP cell inhibition
Excerpt: It is known that one of the properties of stem/progenitor cells is their ability to survive under anchorage-independent conditions and generate mammospheres, which are composed of a small number of stem cells. Given that CSCs generally make up for a small minority of the cells within cancer cell populations, the dye DyeCycle Violet was used to isolate SP cells (side population cells; the side population is enriched for stem/progenitor cells), through a BD FACSAria™ cell sorter. Subsequently, the isolated SP cells were used in a Mammosphere Formation Assay. SP cells of MCF-7 and BT-474 formed more mammospheres than non-SP cells (see FIG. 4A).
Next, the effects of the compound KSA-101696 in SP cells under normal culture conditions was evaluated.

[3] = test system: MDA-MB-231 cells; experiment: Migration assay; settings: Homo sapiens, 2.5 μM to 20 μM, read-out: IC50, migration capacity
Procedure: To assess the metastatic potential of tumor cells, their migration and invasion was evaluated using the 24-well BD BioCoat Matrigel Invasion Chamber as per the manufacturer guideline (BD Bioscience). In brief, 750 μl of migration buffer (serum-free media with or without treatment) or chemoattractants (serum-containing media) were added to the lower wells. Cells were washed three times in migration media and 500 μl (1-2×10^5) of cells were added to the upper wells separated by an 8 micron pore size PET membrane with a thin layer of matrigel basement membrane matrix (for invasion) or without (for migration). The membranes were stained with Diff Quick stain (Fisher Scientific) after removing the non-migrated cells from the top of the membrane with Q-tips. After air drying, the membranes were cut and mounted on slides with oil and cells that had migrated to the underside of the filter were counted using a light microscope (Zeiss Axio Observer) in five randomly selected fields (magnification: 40×). Each assay was performed in triplicate and repeated at least five times. The results were expressed as mean±SD of migrating cells per field counted (FIGS. 6A-6B).

[4] = test system: intracellular Notch-1; experiment: Immunofluorescence of intracellular Notch-1 in MDA-MB-231 breast cancer cells; settings: MDA-MB-231 cells; FIGS. 1B and 1C
Procedure: MDA-MB-231 breast cancer cells were treated either with vehicle (control) or with 0.01 μM, 0.1 μM, 1 μM or 10 μM final concentration of doxorubicin, taxotere or KSA-101696. Then, the cells were cytospun to glass slides by centrifugation at 800 rpm for 3 min. Slides were then air-dried overnight and 4% formaldehyde fixed for 10 min. For staining, the cell membrane was permeabilized with 0.5% triton-X (Sigma) followed by overnight incubation with primary antibodies (anti-Numb, Abcam) and (anti-intracellular Notch-1, Cell Signalling) at 1:100. Cells were washed and stained with AlexaFluor goat anti-rabbit IgG 488 (Invitrogenat) 1:400 for 30 minutes. 300 nM DAPI (Invitrogen, Carlsbad, Calif., USA) was added for 10 minutes to counterstain the nuclei. Slides were mounted and immunofluorescence was visualized using BD Pathway 855 microscope.
Numb exerts its functional role on cell fate decisions by antagonizing Notch signaling activities. The molecular mechanisms underlying this relationship appear to rely on the ubiquitination of the membrane bound Notch-1 receptor and the subsequent degradation of its NICD (Notch intracellular domain) following receptor activation.

[5] = test system: T47D; experiment: Annexin V binding by flow cytometry (apoptosis); settings: high Numb expression, FIG. 9B
Procedure: (§1) It is known that loss of phospholipid asymmetry of the plasma membrane is an early event of apoptosis. The annexin V binds to negatively charged phospholipids, like phosphatidylserine. During apoptosis, the cells react to annexin V once chromatin condenses but before the plasma membrane loses its ability to exclude propidium iodide (PI).
(§2) Annexin-V staining was performed by using Vybrant Apoptosis Assay Kit #2 (Molecular Probes) following the manufacturer's recommendations. Annexin-V stained cells were analyzed by flow cytometry, measuring the fluorescence emission between 515 nm to 545 nm.
This experiment was carried out with three breast cancer cell lines: MDA-MB-468, SKBR-3 and T47D. The MDA-MB-468 cell line represents the basal like breast cancer (which is a breast cancer subtype with a more aggressive clinical behavior). The SKBR-3 cell line represents Her-2 overexpressing breast cancer. […] The T47D cell line represents ER/PR positive breast cancer. Unlike MDA-MB-468 cells or SKBR-3 cells, T47D cells are highly differentiated cells and respond very well to hormonal therapy and chemotherapy.
In a next step, it was investigated whether there was a correlation between Numb protein expression and sensitivity of a cell line to the apoptotic effects of KSA-101696. Apoptotic cells were determined by Annexin-V staining as described in Example 1.

[6] = test system: normal cells MCF-10 A, HSFN1 (human foreskin cells) and BM4 (bone marrow derived mesenchymal stem cells); experiment: Annexin V binding by flow cytometry (apoptosis) in normal cells; settings: 20 μM, 48 h
Procedure: as §1, §2
To evaluate the selective-apoptotic effect of the compound in cancer cells but not normal cells, the cancer cell lines SKBR3, MDA-MB-468, and normal cells MCF-10 A, HSFN1 (human foreskin cells) and BM4 (bone marrow derived mesenchymal stem cells) were used. […] Upon treatment of cells with 20 μM for 48 h, cells were stained with Annexin-V and PI and binding of Annexin-V and PI to the cells was determined by flow cytometry.

## COc1ccc(-c2csc3nc4ccccc4n23)cc1 [KSA-101696, 3-(4-methoxyphenyl)benzo[4,5]imidazo[2,1-b]thiazole]
[1]
  induced apoptosis in cancer stem cells compared to differentiated breast cancer cells: two-fold increase
[2]
  IC50: ~0.3 µM
[3]
  IC50: ~7.5 µM
[4]
  concentration inhibiting intracellular Notch-1 by activating Numb expression: 0.625 µM
[5]
  apoptosis (Annexin-V) in relation to Numb expression: did not have such effects
[6]
  apoptosis (Annexin-V and PI) in normal cells: little apoptotic effect

Reference: patent US10550130B2, “Benzo-thiazolo-imidazole compounds and uses thereof” (KING SAUD UNIVERSITY, priority 2015, dated 2020)
